According to article PMC10349806 (Nature Communications, 2023):
Several values for one entry are separate records, joined by “and”; a condition that tells them apart may be missing. Identical values can stand only once.

Target: PfCRT^Dd2 (Plasmodium falciparum, UniProt Q9N623, A220S/I356T/K76T/M74I/N326S/N75E/Q271E/R371I)
Test: Drug uptake assay, X. laevis oocytes expressing PfCRT^Dd2
Assay type: cell-based
Conditions: for v-1 pH 4.5 / v-1 pH 5.0 / v-1 pH 5.5 / v-1 pH 6.0: Lineweaver-Burk
Protocol: Oocytes were obtained as described previously. Briefly, adult (>2 years old) female X. laevis frogs (NASCO) were anesthetized in a cooled solution of ethyl 3-amino benzoate methanesulfonate (0.1%, w/v), followed by a surgical removal of parts of the ovary. The ovary lobes were carefully dissected and small pieces of oocytes were incubated in Ca^2+-free ND96 buffer (96 mM NaCl, 2 mM KCl, 1 mM MgCl2 buffered with 5 mM HEPES/NaOH, pH 7.5) supplemented with collagenase D (0.1%, w/v; Roche), BSA (0.5%, w/v), and 9 mm Na2HPO4 at 18 °C for 14-16 h while gentle shaking. After incubation, the oocytes were carefully washed several times with ND96 buffer (96 mM NaCl, 2 mM KCl, 1.8 mM CaCl2, 1 mM MgCl2 buffered with 5 mM HEPES/NaOH, pH 7.5) supplemented with 100 mg l^−1 gentamycin). Defolliculated and healthy-looking stage V-VI oocytes were manually selected for RNA microinjection. The RNA was generated as following: The codon-optimized sequences of PfCRT variants were cloned into the pSP64T expression vector. After vector linearization using the restriction endonucleases BamHI or SalI (New England Biolabs), transcription was performed using the in vitro SP6 mMessage mMachine Kit (Ambion)[34]. The obtained RNA was kept at −80 °C and diluted with nuclease-free water to a concentration of 0.6 μg μl^−1. Precision-bore glass capillary tubes (3.5-inch glass capillaries; Drummond Scientific Co.) were pulled on a vertical puller (P-87 Flaming/Brown micropipette puller, Sutter Instrument Co.), graduated, and placed on a microinjector (Nanoject II Auto-Nanoliter Injector, Drummond Scientific Co.). 50 nl of nuclease-free water alone (control oocytes) or 50 nl of 0.6 μg μl^−1 RNA were injected under stereomicroscopic control. Injected oocytes were incubated for 46–72 h at 18 °C with twice-daily buffer changes before usage in experiments.
Drug uptake assays were performed as described previously[21],[22],[24],[34]. […] The direction of radio-labeled drug transport is here from the mostly acidic extracellular solution (pH 4.5 or 6.0, as indicated) into the oocyte cytosol (pH ∼ 7.2), which corresponds to the efflux of drug from the acidic digestive vacuole (pH 5.2) into the parasite cytoplasm (pH 7.2). The topology of PfCRT in the oolemma is such that both the N- and C-terminus face the extracellular milieu[3],[22]. In the parasite, the N- and C-terminus face the lumen of the digestive vacuole. […] For determination of the amount of drug uptake for each oocyte, the reaction medium was removed and the oocytes were washed three times with 2 ml of ice-cold ND96 buffer. Each oocyte was individually transferred to a scintillation vial containing 5% sodium dodecyl sulfate (200 μl) for lysis. […] Oocytes that were injected with water instead of RNA were analyzed in parallel, representing the uptake of a drug by diffusion and/or endogenous permeation pathways. The resulting value represents the “background“ level of drug accumulation in oocytes (in-depth discussion in[22]). The specific PfCRT-mediated uptake was determined by subtracting the corresponding background value measured in water-injected oocytes from that of PfCRT-expressing oocytes. In all cases, at least three separate experiments were performed on oocytes from different frogs (biological replicate), and for each condition in an experiment, measurements were made from 10 oocytes per treatment. For pH 5.5, 6.0, and 6.5, ND96 was buffered with 5 mM MES/Tris base. For pH 4.5, 5 mM Homo-Pipes was used as a buffer and 5 mM HEPES for uptake at pH 7.0.

Sequence of PfCRT^Dd2 (Q9N623 whole entry A220S/I356T/K76T/M74I/N326S/N75E/Q271E/R371I): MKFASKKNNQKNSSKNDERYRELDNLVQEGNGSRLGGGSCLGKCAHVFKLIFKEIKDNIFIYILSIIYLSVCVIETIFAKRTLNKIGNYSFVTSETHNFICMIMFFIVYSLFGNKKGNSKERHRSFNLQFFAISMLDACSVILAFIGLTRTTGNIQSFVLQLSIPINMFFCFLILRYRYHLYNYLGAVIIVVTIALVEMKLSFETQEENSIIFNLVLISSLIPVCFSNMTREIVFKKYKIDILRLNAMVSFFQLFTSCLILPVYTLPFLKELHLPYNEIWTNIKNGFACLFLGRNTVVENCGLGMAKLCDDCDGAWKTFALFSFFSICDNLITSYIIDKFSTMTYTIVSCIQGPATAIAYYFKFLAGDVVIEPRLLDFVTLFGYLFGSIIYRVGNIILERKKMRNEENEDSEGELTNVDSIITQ

## CCN(CC)CCCC(C)Nc1ccnc2cc(Cl)ccc12 (centres unmarked) [CQ, chloroquine]
300 µM CQ, time 90 min
  PfCRTDd2-mediated CQ transport activity: 21.08 pmol oocyte-1
300 µM CQ
  v-1 pH 4.5: 0.11 (pmol oocyte-1 h-1)-1
  v-1 pH 5.0: 0.09 (pmol oocyte-1 h-1)-1
  v-1 pH 5.5: 0.08 (pmol oocyte-1 h-1)-1
  v-1 pH 6.0: 0.0649 (pmol oocyte-1 h-1)-1
400 µM CQ, pH 4.5, 60 min
  PfCRTDd2 transport activity: 9.19 pmol oocyte-1 h-1 and 9.21 pmol oocyte-1 h-1 and 9.15 pmol oocyte-1 h-1 and 10.13 pmol oocyte-1 h-1 and 7.52 pmol oocyte-1 h-1 and 9.96 pmol oocyte-1 h-1
400 µM CQ, pH 5.0, 60 min
  PfCRTDd2 transport activity: 11.32 pmol oocyte-1 h-1
400 µM CQ, pH 5.0, individual replicates (Fig 4a)
  PfCRTDd2 transport activity 400 µM CQ pH 5.0: 11.40 pmol oocyte-1 h-1 and 11.89 pmol oocyte-1 h-1 and 10.67 pmol oocyte-1 h-1
400 µM CQ, pH 5.5, 60 min
  PfCRTDd2 transport activity: 13.77 pmol oocyte-1 h-1
400 µM CQ, pH 5.5, individual replicates (Fig 4a)
  PfCRTDd2 transport activity 400 µM CQ pH 5.5: 14.89 pmol oocyte-1 h-1 and 13.71 pmol oocyte-1 h-1 and 13.31 pmol oocyte-1 h-1
400 µM CQ, pH 6.0, 60 min
  PfCRTDd2 transport activity: 19.62 pmol oocyte-1 h-1 and 19.38 pmol oocyte-1 h-1 and 19.10 pmol oocyte-1 h-1 and 20.37 pmol oocyte-1 h-1
400 µM CQ, pH 6.0, individual replicates (Fig 4a)
  PfCRTDd2 transport activity 400 µM CQ pH 6.0: 19.38 pmol oocyte-1 h-1 and 19.10 pmol oocyte-1 h-1 and 20.37 pmol oocyte-1 h-1
400 µM CQ, time 0 min
  PfCRTDd2-mediated CQ transport activity: 0.00 pmol oocyte-1
400 µM CQ, time 30 min
  PfCRTDd2-mediated CQ transport activity: 11.37 pmol oocyte-1
400 µM CQ, time 60 min
  PfCRTDd2-mediated CQ transport activity: 18.93 pmol oocyte-1
400 µM CQ, time 90 min
  PfCRTDd2-mediated CQ transport activity: 23.37 pmol oocyte-1
400 µM CQ
  v-1 pH 4.5: 0.11 (pmol oocyte-1 h-1)-1
  v-1 pH 5.0: 0.09 (pmol oocyte-1 h-1)-1
  v-1 pH 5.5: 0.07 (pmol oocyte-1 h-1)-1
  v-1 pH 6.0: 0.05 (pmol oocyte-1 h-1)-1
500 µM CQ, pH 4.5, 60 min
  PfCRTDd2 transport activity: 9.38 pmol oocyte-1 h-1 and 9.85 pmol oocyte-1 h-1 and 9.73 pmol oocyte-1 h-1 and 10.40 pmol oocyte-1 h-1 and 7.53 pmol oocyte-1 h-1
500 µM CQ, pH 4.5, individual replicates (Fig 4a)
  PfCRTDd2 transport activity 500 µM CQ pH 4.5: 9.85 pmol oocyte-1 h-1 and 9.73 pmol oocyte-1 h-1 and 10.40 pmol oocyte-1 h-1 and 7.53 pmol oocyte-1 h-1
500 µM CQ, pH 5.0, 60 min
  PfCRTDd2 transport activity: 11.35 pmol oocyte-1 h-1
500 µM CQ, pH 5.0, individual replicates (Fig 4a)
  PfCRTDd2 transport activity 500 µM CQ pH 5.0: 12.28 pmol oocyte-1 h-1
500 µM CQ, pH 5.5, 60 min
  PfCRTDd2 transport activity: 14.75 pmol oocyte-1 h-1
500 µM CQ, pH 5.5, individual replicates (Fig 4a)
  PfCRTDd2 transport activity 500 µM CQ pH 5.5: 14.32 pmol oocyte-1 h-1 and 15.56 pmol oocyte-1 h-1 and 14.38 pmol oocyte-1 h-1 and 14.75 pmol oocyte-1 h-1
500 µM CQ, pH 6.0, 60 min
  PfCRTDd2 transport activity: 20.73 pmol oocyte-1 h-1 and 20.81 pmol oocyte-1 h-1 and 20.59 pmol oocyte-1 h-1 and 20.78 pmol oocyte-1 h-1
500 µM CQ, pH 6.0, individual replicates (Fig 4a)
  PfCRTDd2 transport activity 500 µM CQ pH 6.0: 20.81 pmol oocyte-1 h-1 and 20.59 pmol oocyte-1 h-1 and 20.78 pmol oocyte-1 h-1
500 µM CQ, time 0 min
  PfCRTDd2-mediated CQ transport activity: 0.00 pmol oocyte-1
500 µM CQ, time 30 min
  PfCRTDd2-mediated CQ transport activity: 18.55 pmol oocyte-1
500 µM CQ, time 60 min
  PfCRTDd2-mediated CQ transport activity: 25.91 pmol oocyte-1
500 µM CQ, time 90 min
  PfCRTDd2-mediated CQ transport activity: 27.18 pmol oocyte-1
500 µM CQ
  v-1 pH 4.5: 0.11 (pmol oocyte-1 h-1)-1
  v-1 pH 5.0: 0.09 (pmol oocyte-1 h-1)-1
  v-1 pH 5.5: 0.07 (pmol oocyte-1 h-1)-1
